Our source for the Ki values is ChEMBL document CHEMBL1143479, “Carbonic anhydrase inhibitors: inhibition of the tumor-associated isozymes IX and XII with a library of aromatic and heteroaromatic sulfonamides” (Bioorg Med Chem Lett, 2005).

Usually Ki stands for a dissociation constant, usually derived from enzyme kinetics or from competition with a known ligand.

Some targets named below: Carbonic anhydrase 9 (Homo sapiens, UniProt Q16790); Carbonic anhydrase 1 (Homo sapiens, UniProt P00915); Carbonic anhydrase 2 (Homo sapiens, UniProt P00918); Carbonic anhydrase 12 (Homo sapiens, UniProt O43570).

Sequence of Carbonic anhydrase 1 (P00915 whole entry): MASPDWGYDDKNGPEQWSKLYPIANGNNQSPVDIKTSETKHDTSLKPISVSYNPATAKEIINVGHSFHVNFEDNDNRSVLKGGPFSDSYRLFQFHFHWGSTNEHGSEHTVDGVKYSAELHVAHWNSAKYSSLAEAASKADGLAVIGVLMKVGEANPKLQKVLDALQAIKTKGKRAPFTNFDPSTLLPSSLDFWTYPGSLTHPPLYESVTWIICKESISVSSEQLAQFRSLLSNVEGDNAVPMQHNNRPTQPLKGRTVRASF
Sequence of Carbonic anhydrase 12 (O43570 whole entry): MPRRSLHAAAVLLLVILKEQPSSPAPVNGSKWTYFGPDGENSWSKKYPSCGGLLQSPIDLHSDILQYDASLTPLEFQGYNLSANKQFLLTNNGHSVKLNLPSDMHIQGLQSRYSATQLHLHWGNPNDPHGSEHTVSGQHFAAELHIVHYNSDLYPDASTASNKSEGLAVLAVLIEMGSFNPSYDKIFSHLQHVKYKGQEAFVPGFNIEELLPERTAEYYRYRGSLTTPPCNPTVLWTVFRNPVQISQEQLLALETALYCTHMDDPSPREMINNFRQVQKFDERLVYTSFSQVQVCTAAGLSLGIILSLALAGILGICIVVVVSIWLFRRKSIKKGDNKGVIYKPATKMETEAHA

In the case of `CC(=O)Nc1ccc(Nc2ccc(S(N)(=O)=O)cc2)cc1`, the Ki on Carbonic anhydrase 9 came to 37 nM.
At Carbonic anhydrase 9, `CC(C)(C)C(=O)Nc1ccc(S(N)(=O)=O)cc1` returned a Ki of 136 nM.
`CC(C)C(=O)Nc1ccc(S(N)(=O)=O)cc1` came in with an inhibition constant Ki on Carbonic anhydrase 9 of 139 nM.
Still for that read-out and setting: the same measure for `CCCC(=O)Nc1ccc(S(N)(=O)=O)cc1`: 83 nM.
As for `NS(=O)(=O)c1ccc(CCNC(=S)Nc2ccccc2)cc1`, the Ki at Carbonic anhydrase 1 worked out at 50 nM; on Carbonic anhydrase 2 it was 53 nM; at Carbonic anhydrase 12, 24 nM; at Carbonic anhydrase 9, 21 nM.
In the case of `CCCCC(=O)Nc1ccc(S(N)(=O)=O)cc1`, on Carbonic anhydrase 9, the Ki is 79 nM.
Take `NS(=O)(=O)c1ccc(CCNC(=S)Nc2ccc(S(N)(=O)=O)cc2)cc1`: the inhibition constant (Ki) on Carbonic anhydrase 1 stood at 37 nM; at Carbonic anhydrase 2, 4 nM; on Carbonic anhydrase 12 it was 79 nM.
On to `NS(=O)(=O)c1cccc(NC(=O)Nc2ccccc2)c1`, for which the results for the Ki at Carbonic anhydrase 1, at Carbonic anhydrase 12 and at Carbonic anhydrase 9 were 1500 nM, 10 nM and 14 nM, respectively.
Molecule `CC(=O)Nc1ccc(S(N)(=O)=O)cc1` yielded a Ki at Carbonic anhydrase 12 of 49 nM.
